# Test system: Enterococcus faecium
# Test: Antibacterial activity against Enterococcus faecium L 4001 was determined
# Type: functional
row,SMILES,MIC [µg/mL]
1,CN(C(=O)C[C@@H](N)CCCN=C(N)N)C1CN=C(NC(N)=O)NC1=O.Cl.Cl (stereo partly drawn),2
2,CC(=O)O.CN(C(=O)C[C@@H](N)CCCN=C(N)N)C1CN=C(Nc2ccc3ccccc3n2)NC1=O (stereo partly drawn),8
3,CC(=O)O.CN(C(=O)C[C@@H](N)CCCN=C(N)N)C1CN=C(Nc2ccccn2)NC1=O (stereo partly drawn),2

# Test system: Enterococcus faecium
# Test: Antibacterial activity against Enterococcus faecium 18531 was determined
# Type: functional
row,SMILES,MIC [µg/mL]
1,CN(C(=O)C[C@@H](N)CCCN=C(N)N)C1CN=C(NC(N)=O)NC1=O.Cl.Cl (stereo partly drawn),> 16
2,CC(=O)O.CN(C(=O)C[C@@H](N)CCCN=C(N)N)C1CN=C(Nc2ccc3ccccc3n2)NC1=O (stereo partly drawn),> 16
3,CC(=O)O.CN(C(=O)C[C@@H](N)CCCN=C(N)N)C1CN=C(Nc2ccccn2)NC1=O (stereo partly drawn),> 64

# Test system: Escherichia coli
# Test: Inhibitory activity tested against procaryotic translation in Escherichia coli S30 Extract System
# Type: functional, organism-based
row,SMILES,IC50 [nM]
1,CN(C(=O)C[C@@H](N)CCCN=C(N)N)C1CN=C(NC(N)=O)NC1=O.Cl.Cl (stereo partly drawn),300
2,CC(=O)O.CN(C(=O)C[C@@H](N)CCCN=C(N)N)C1CN=C(Nc2ccc3ccccc3n2)NC1=O (stereo partly drawn),100
3,Br.CN(C(=O)C[C@@H](N)CCCCN)C1CN=C(Nc2nc3ccccc3s2)NC1=O (stereo partly drawn),3200
4,CN(C(=O)C[C@@H](N)c1csc(CCN)n1)C1CN=C(NC(N)=O)NC1=O.O=S(=O)(O)C(F)(F)F (stereo partly drawn),16000
5,CC(=O)O.CN(C(=O)C[C@@H](N)CCCCN)C1CN=C(Nc2nc3ccccc3[nH]2)NC1=O (stereo partly drawn),1000
6,CN(C(=O)C[C@@H](N)c1cc(CN)on1)C1CN=C(NC(N)=O)NC1=O.Cl.Cl (stereo partly drawn),> 64000
7,CN(C(=O)C[C@@H](N)c1csc(CN)n1)C1CN=C(NC(N)=O)NC1=O.O=S(=O)(O)C(F)(F)F (stereo partly drawn),32000
8,CN(C(=O)C[C@@H](N)CCCCN)C1CN=C(NC(N)=O)NC1=O.Cl.Cl (stereo partly drawn),500
9,CN(C(=O)C[C@@H](N)CCCCN)C1CN=C(Nc2ncccn2)NC1=O.Cl.Cl (stereo partly drawn),1000
10,Br.CN(C(=O)C[C@@H](N)CCCN=C(N)N)C1CN=C(Nc2ncccn2)NC1=O (stereo partly drawn),< 50
11,CC(=O)O.CN(C(=O)C[C@@H](N)CCCCN)C1CN=C(Nc2cccnc2)NC1=O (stereo partly drawn),> 64000
12,Br.Cc1csc(NC2=NCC(N(C)C(=O)C[C@@H](N)CCCCN)C(=O)N2)n1 (stereo partly drawn),1000
13,Br.CN(C(=O)C[C@@H](N)CCCCN)C1CN=C(Nc2cnccn2)NC1=O (stereo partly drawn),< 100
14,CC(=O)O.CN(C(=O)C[C@@H](N)CCCCN)C1CN=C(Nc2ccc3ccccc3n2)NC1=O (stereo partly drawn),50

# Species: Oryctolagus cuniculus
# Test: Inhibitory activity tested against eucaryotic translation in Rabbit Reticulocyte Lysate System L 4540
# Type: functional
row,SMILES,IC50 [nM]
1,CN(C(=O)C[C@@H](N)CCCN=C(N)N)C1CN=C(NC(N)=O)NC1=O.Cl.Cl (stereo partly drawn),170
2,CC(=O)O.CN(C(=O)C[C@@H](N)CCCN=C(N)N)C1CN=C(Nc2ccc3ccccc3n2)NC1=O (stereo partly drawn),100
3,CN(C(=O)C[C@@H](N)CCCCN)C1CN=C(NC(N)=O)NC1=O.Cl.Cl (stereo partly drawn),2800
4,CC(=O)O.CN(C(=O)C[C@@H](N)CCCN=C(N)N)C1CN=C(Nc2ccccn2)NC1=O (stereo partly drawn),70
5,CN(C(=O)C[C@@H](N)CCCCN)C1CN=C(Nc2ncccn2)NC1=O.Cl.Cl (stereo partly drawn),380
6,Br.CN(C(=O)C[C@@H](N)CCCN=C(N)N)C1CN=C(Nc2ncccn2)NC1=O (stereo partly drawn),100
7,Br.CN(C(=O)C[C@@H](N)CCCCN)C1CN=C(Nc2cnccn2)NC1=O (stereo partly drawn),< 100
8,CC(=O)O.CN(C(=O)C[C@@H](N)CCCCN)C1CN=C(Nc2ccc3ccccc3n2)NC1=O (stereo partly drawn),50

# Test system: Staphylococcus aureus
# Test: In vitro minimum inhibitory concentration against Staphylococcus aureus 133.
# Type: functional
row,SMILES,MIC [µg/mL]
1,CN(C(=O)C[C@@H](N)CSCCN)C1CN=C(NC(N)=O)NC1=O.Cl.Cl (stereo partly drawn),100
2,CN(C(=O)C[C@@H](N)CCCN=C(N)N)C1CN=C(NC(N)=O)NC1=O.Cl.Cl (stereo partly drawn),0.1
3,CC(=O)O.CN(C(=O)C[C@@H](N)CCCN=C(N)N)C1CN=C(Nc2ccc3ccccc3n2)NC1=O (stereo partly drawn),0.1
4,CC(=O)O.CN(C(=O)C[C@@H](N)CCCCN)C1CN=C(Nc2ccccn2)NC1=O (stereo partly drawn),0.2
5,Br.CN(C(=O)C[C@@H](N)CCCCN)C1CN=C(Nc2nc3ccccc3s2)NC1=O (stereo partly drawn),25
6,CN(C(=O)C[C@@H](N)c1csc(CCN)n1)C1CN=C(NC(N)=O)NC1=O.O=S(=O)(O)C(F)(F)F (stereo partly drawn),100
7,CC(=O)O.CN(C(=O)C[C@@H](N)CCCCN)C1CN=C(Nc2nc3ccccc3[nH]2)NC1=O (stereo partly drawn),50
8,CN(C(=O)C[C@@H](N)CS(=O)(=O)CCN)C1CN=C(NC(N)=O)NC1=O.Cl.Cl (stereo partly drawn),> 100
9,CN(C(=O)C[C@@H](N)c1cc(CN)on1)C1CN=C(NC(N)=O)NC1=O.Cl.Cl (stereo partly drawn),> 100
10,CN(C(=O)C[C@@H](N)c1csc(CN)n1)C1CN=C(NC(N)=O)NC1=O.O=S(=O)(O)C(F)(F)F (stereo partly drawn),50
11,CN(C(=O)C[C@@H](N)CCCCN)C1CN=C(NC(N)=O)NC1=O.Cl.Cl (stereo partly drawn),0.05
12,CC(=O)O.CN(C1=NCC(N(C)C(=O)C[C@@H](N)CCCCN)C(=O)N1)c1ccccn1 (stereo partly drawn),> 100
13,CC(=O)O.CN(C(=O)C[C@@H](N)CCCN=C(N)N)C1CN=C(Nc2ccccn2)NC1=O (stereo partly drawn),< 0.05
14,CN(C(=O)C[C@@H](N)CCCCN)C1CN=C(Nc2ncccn2)NC1=O.Cl.Cl (stereo partly drawn),1.6
15,Br.CN(C(=O)C[C@@H](N)CCCN=C(N)N)C1CN=C(Nc2ncccn2)NC1=O (stereo partly drawn),0.4
16,CC(=O)O.CN(C(=O)C[C@@H](N)CCCCN)C1CN=C(Nc2cccnc2)NC1=O (stereo partly drawn),50
17,CC(=O)O.CN(C(=O)C[C@@H](N)CCCCN)C1CN=C(Nc2ccccc2)NC1=O (stereo partly drawn),100
18,Br.Cc1csc(NC2=NCC(N(C)C(=O)C[C@@H](N)CCCCN)C(=O)N2)n1 (stereo partly drawn),50
19,Br.CN(C(=O)C[C@@H](N)CCCCN)C1CN=C(Nc2cnccn2)NC1=O (stereo partly drawn),< 0.1
20,CN(C(=O)C[C@@H](N)CCCCN)C1CN=C(NC2=NCCCN2)NC1=O.Cl.Cl (stereo partly drawn),> 100
21,CC(=O)O.CN(C(=O)C[C@@H](N)CCCCN)C1CN=C(Nc2ccc3ccccc3n2)NC1=O (stereo partly drawn),6.3

# Test system: not listed separately
# Test: Antibacterial activity against […] pneumoniae 1707/4 was determined
# Type: functional
row,SMILES,MIC [µg/mL]
1,CN(C(=O)C[C@@H](N)CCCN=C(N)N)C1CN=C(NC(N)=O)NC1=O.Cl.Cl (stereo partly drawn),32
2,CC(=O)O.CN(C(=O)C[C@@H](N)CCCN=C(N)N)C1CN=C(Nc2ccc3ccccc3n2)NC1=O (stereo partly drawn),8
3,CC(=O)O.CN(C(=O)C[C@@H](N)CCCN=C(N)N)C1CN=C(Nc2ccccn2)NC1=O (stereo partly drawn),2

# Test system: not listed separately
# Test: Antibacterial activity against […] pneumoniae G9a was determined
# Type: functional
row,SMILES,MIC [µg/mL]
1,CN(C(=O)C[C@@H](N)CCCN=C(N)N)C1CN=C(NC(N)=O)NC1=O.Cl.Cl (stereo partly drawn),16
2,CC(=O)O.CN(C(=O)C[C@@H](N)CCCN=C(N)N)C1CN=C(Nc2ccccn2)NC1=O (stereo partly drawn),2

# Test system: Staphylococcus aureus
# Test: Antibacterial activity against Staphylococcus aureus 133 was determined
# Type: functional
SMILES,ED100 [mg/kg],MIC [µg/mL]
CN(C(=O)C[C@@H](N)CCCN=C(N)N)C1CN=C(NC(N)=O)NC1=O.Cl.Cl (stereo partly drawn),0.25,0.25
CC(=O)O.CN(C(=O)C[C@@H](N)CCCN=C(N)N)C1CN=C(Nc2ccc3ccccc3n2)NC1=O (stereo partly drawn),,0.5
CC(=O)O.CN(C(=O)C[C@@H](N)CCCN=C(N)N)C1CN=C(Nc2ccccn2)NC1=O (stereo partly drawn),1,0.5

# Test system: Staphylococcus epidermidis
# Test: Antibacterial activity against Staphylococcus epidermidis 18570 was determined
# Type: functional
row,SMILES,MIC [µg/mL]
1,CN(C(=O)C[C@@H](N)CCCN=C(N)N)C1CN=C(NC(N)=O)NC1=O.Cl.Cl (stereo partly drawn),0.25
2,CC(=O)O.CN(C(=O)C[C@@H](N)CCCN=C(N)N)C1CN=C(Nc2ccc3ccccc3n2)NC1=O (stereo partly drawn),0.25
3,CC(=O)O.CN(C(=O)C[C@@H](N)CCCN=C(N)N)C1CN=C(Nc2ccccn2)NC1=O (stereo partly drawn),0.25

# Test system: not listed separately
# Test: In vitro selectivity index was measured as IC50 eucaryotic translation/procaryotic translation
# Type: functional
row,SMILES,Selectivity
1,CN(C(=O)C[C@@H](N)CCCN=C(N)N)C1CN=C(NC(N)=O)NC1=O.Cl.Cl (stereo partly drawn),0.57
2,CC(=O)O.CN(C(=O)C[C@@H](N)CCCN=C(N)N)C1CN=C(Nc2ccc3ccccc3n2)NC1=O (stereo partly drawn),1
3,CN(C(=O)C[C@@H](N)CCCCN)C1CN=C(NC(N)=O)NC1=O.Cl.Cl (stereo partly drawn),5.3
4,CN(C(=O)C[C@@H](N)CCCCN)C1CN=C(Nc2ncccn2)NC1=O.Cl.Cl (stereo partly drawn),0.38
5,Br.CN(C(=O)C[C@@H](N)CCCN=C(N)N)C1CN=C(Nc2ncccn2)NC1=O (stereo partly drawn),> 2
6,CC(=O)O.CN(C(=O)C[C@@H](N)CCCCN)C1CN=C(Nc2ccc3ccccc3n2)NC1=O (stereo partly drawn),1
